Test results as given in patent EP4563146A1 (IRBM S.P.A., priority 2023, dated 2025).
Where two headings read alike, the source gives them in different places.

Assays:
[1] = molecular target: T1, West Nile Virus (WNV) NS2B-NS3 protease (West Nile virus, UniProt Q9Q6P4); test: WNV protease inhibition assay; type: biochemical; conditions: Table 4; letter codes for IC50
T1 construct: NS2B1423-1470); purchased R&D 2907-SE-020
From the text: WNV protease inhibition assay

ZIKV replicon = test: ZIKV replication inhibition assay (NanoLuc replicon in Vero cells); conditions: Zika virus, Vero, 72 h
[2] = read-out: ZIKA Cell_Nanoluc, Vero cells with stable ZIKV replicon, 72 h, Nano-Glo readout

T1 sequence (Q9Q6P4 1423-1470): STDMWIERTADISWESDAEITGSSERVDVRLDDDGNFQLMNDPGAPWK
T1 sequence (Q9Q6P4 1506-1689): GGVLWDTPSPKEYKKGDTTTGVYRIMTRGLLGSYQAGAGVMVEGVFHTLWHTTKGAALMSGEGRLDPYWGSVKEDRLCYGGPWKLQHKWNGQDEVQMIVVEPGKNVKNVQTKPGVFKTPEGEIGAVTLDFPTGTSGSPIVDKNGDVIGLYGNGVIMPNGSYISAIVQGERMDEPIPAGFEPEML

Structure (SMILES) | IC50 [1] | EC50 (ZIKV replicon; read-out: ZIKA Cell_Nanoluc) | EC50 (ZIKV replicon; [2])
CN(C)C[C@H]1CC[C@H]([n+]2cc([N-]C(=O)Nc3cc(NC(=O)Cc4cccc(CC(N)=O)c4)cc(C(F)(F)F)c3)on2)CC1 [Example 162, ((3-(2-(3-(2-Amino-2-oxoethyl)phenyl)-acetamido)-5-(trifluoromethyl)phenyl)-carbamoyl)(3-((1R,4R)-4-((dimethylamino)-methyl)cyclohexyl)-1,2,3-oxadiazol-3-ium-5-yl)amide] | 100 to 1000 nM | 1000 to 20000 nM | 
CN(C)C[C@H]1CC[C@H]([n+]2cc([N-]C(=O)Nc3cc(NC(=O)Cc4cccc(CN)c4)cc(C(F)(F)F)c3)on2)CC1 [Example 163, ((3-(2-(3-(Aminomethyl)phenyl)acetamido)-5-(trifluoromethyl)phenyl)carbamoyl)(3-((1R,4R)-4-((dimethylamino)methyl)cyclohexyl)-1,2,3-oxadiazol-3-ium-5-yl)amide] | 100 to 1000 nM | 1000 to 20000 nM | 
CC(C(=O)Nc1cc(NC(=O)[N-]c2c[n+]([C@H]3CC[C@H](CN(C)C)CC3)no2)cc(C(F)(F)F)c1)c1ccccc1 (stereo partly drawn) [Example 164, (3-((1R,4R)-4-((Dimethylamino)methyl)-cyclohexyl)-1,2,3-oxadiazol-3-ium-5-yl)((3-(2-phenylpropanamido)-5-(trifluoromethyl)phenyl)-carbamoyl)amide] | < 100 nM | 100 to 1000 nM | 
CCC(C(=O)Nc1cc(NC(=O)[N-]c2c[n+]([C@H]3CC[C@H](CN(C)C)CC3)no2)cc(C(F)(F)F)c1)c1ccccc1 (stereo partly drawn) [Example 165, (3-((1R,4R)-4-((Dimethylamino)methyl)-cyclohexyl)-1,2,3-oxadiazol-3-ium-5-yl)((3-(2-phenylbutanamido)-5-(trifluoromethyl)phenyl)-carbamoyl)amide] | 100 to 1000 nM | 100 to 1000 nM | 
CN(C)C[C@H]1CC[C@H]([n+]2cc([N-]C(=O)Nc3cc(NC(=O)Cc4ccccc4C(F)(F)F)cc(C(F)(F)F)c3)on2)CC1 [Example 166, (3-((1R,4R)-4-((Dimethylamino)methyl)-cyclohexyl)-1,2,3-oxadiazol-3-ium-5-yl)((3-(trifluoromethyl)-5-(2-(2-(trifluoromethyl)-phenyl)acetamido)phenyl)carbamoyl)amide] | 100 to 1000 nM | 1000 to 20000 nM | 
CC(C(=O)N(C)c1cc(NC(=O)[N-]c2c[n+]([C@H]3CC[C@H](CN(C)C)CC3)no2)cc(C(F)(F)F)c1)c1ccccc1 (stereo partly drawn) [Example 167, (3-((1R,4R)-4-((Dimethylamino)methyl)-cyclohexyl)-1,2,3-oxadiazol-3-ium-5-yl)((3-(N-methyl-2-phenylpropanamido)-5-(trifluoromethyl)phenyl)carbamoyl)amide] | 100 to 1000 nM | 1000 to 20000 nM | 
CN(C)C[C@H]1CC[C@H]([n+]2cc([N-]C(=O)Nc3cc(NC(=O)Cc4ccccc4Cl)cc(C(F)(F)F)c3)on2)CC1 [Example 168, ((3-(2-(2-Chlorophenyl)acetamido)-5-(trifluoromethyl)phenyl)carbamoyl)(3-((1R,4R)-4-((dimethylamino)methyl)cyclohexyl)-1,2,3-oxadiazol-3-ium-5-yl)amide] | < 100 nM | 100 to 1000 nM | 
CN(C)C[C@H]1CC[C@H]([n+]2cc([N-]C(=O)Nc3cc(NC(=O)Cc4cccc(F)c4F)cc(C(F)(F)F)c3)on2)CC1 [Example 169, ((3-(2-(2,3-Difluorophenyl)acetamido)-5-(trifluoromethyl)phenyl)carbamoyl)(3-((1R,4R)-4-((dimethylamino)methyl)cyclohexyl)-1,2,3-oxadiazol-3-ium-5-yl)amide] | < 100 nM | 100 to 1000 nM | 
C[C@H](C(=O)Nc1cc(NC(=O)[N-]c2c[n+]([C@H]3CC[C@H](CN(C)C)CC3)no2)cc(C(F)(F)F)c1)c1ccccc1 [Example 170, (3-((1R,4S)-4-((Dimethylamino)methyl)-cyclohexyl)-1,2,3-oxadiazol-3-ium-5-yl)((3-((S)-2-phenylpropanamido)-5-(trifluoromethyl)-phenyl)carbamoyl)amide] | < 100 nM | 100 to 1000 nM | 
Cc1ccccc1CC(=O)Nc1cc(NC(=O)[N-]c2c[n+]([C@H]3CC[C@H](CN(C)C)CC3)no2)cc(C(F)(F)F)c1 [Example 171, (3-((1R,4R)-4-((Dimethylamino)methyl)-cyclohexyl)-1,2,3-oxadiazol-3-ium-5-yl)((3-(2-(o-tolyl)acetamido)-5-(trifluoromethyl)phenyl)-carbamoyl)amide] | < 100 nM | 100 to 1000 nM | 
CN(C)C[C@H]1CC[C@H]([n+]2cc([N-]C(=O)Nc3cc(N(C)C(=O)Cc4ccccc4)cc(C(F)(F)F)c3)on2)CC1 [Example 172, (3-((1R,4R)-4-((Dimethylamino)methyl)-cyclohexyl)-1,2,3-oxadiazol-3-ium-5-yl)((3-(N-methyl-2-phenylacetamido)-5-(trifluoromethyl)-phenyl)carbamoyl)amide] | 100 to 1000 nM | 1000 to 20000 nM | 
CN(C)[C@@H]1CCC[C@@H]([n+]2cc([N-]C(=O)Nc3cc(NC(=O)Cc4ccccc4)cc(C(F)(F)F)c3)on2)C1 [Example 173, (3-((1R,3R)-3-(Dimethylamino)cyclohexyl)-1,2,3-oxadiazol-3-ium-5-yl)((3-(2-phenylacetamido)-5-(trifluoromethyl)phenyl)-carbamoyl)amide] | < 100 nM |  | 100 to 1000 nM
CN(C)[C@H]1CCC[C@@H]([n+]2cc([N-]C(=O)Nc3cc(NC(=O)Cc4ccccc4)cc(C(F)(F)F)c3)on2)C1 [Example 174, (3-((1R,3S)-3-(Dimethylamino)cyclohexyl)-1,2,3-oxadiazol-3-ium-5-yl)((3-(2-phenyl-acetamido)-5-(trifluoromethyl)phenyl)-carbamoyl)amide] | 100 to 1000 nM |  | 1000 to 20000 nM
C[C@@H](C(=O)Nc1cc(NC(=O)[N-]c2c[n+]([C@H]3CC[C@H](CN(C)C)CC3)no2)cc(C(F)(F)F)c1)c1ccccc1 [Example 175, (3-((1R,4R)-4-((Dimethylamino)methyl)-cyclohexyl)-1,2,3-oxadiazol-3-ium-5-yl)((3-((R)-2-phenylpropanamido)-5-(trifluoromethyl)-phenyl)carbamoyl)amide] | < 100 nM | 1000 to 20000 nM | 
CN(C)C[C@H]1CC[C@H]([n+]2cc([N-]C(=O)Nc3cc(NC(=O)Cc4cccc(Cl)c4)cc(C(F)(F)F)c3)on2)CC1 [Example 176, ((3-(2-(3-Chlorophenyl)acetamido)-5-(trifluoromethyl)phenyl)carbamoyl)(3-((1R,4R)-4-((dimethylamino)methyl)cyclohexyl)-1,2,3-oxadiazol-3-ium-5-yl)amide] | 100 to 1000 nM | 1000 to 20000 nM | 
CN(C)C[C@H]1CC[C@H]([n+]2cc([N-]C(=O)Nc3cc(NC(=O)C4CCCc5ccccc54)cc(C(F)(F)F)c3)on2)CC1 (stereo partly drawn) [Example 177, (3-((1R,4R)-4-((Dimethylamino)methyl)-cyclohexyl)-1,2,3-oxadiazol-3-ium-5-yl)((3-(1,2,3,4-tetrahydronaphthalene-1-carboxamido)-5-(trifluoromethyl)phenyl)carbamoyl)amide] | 100 to 1000 nM | 1000 to 20000 nM | 
O=C([N-]c1c[n+](C[C@H]2CC[C@@H](c3cncnc3)CC2)no1)Nc1cccc(C(F)(F)F)c1 [Example 179, (3-(((1S,4S)-4-(Pyrimidin-5-yl)cyclohexyl)-methyl)-1,2,3-oxadiazol-3-ium-5-yl)((3-(trifluoromethyl)phenyl)carbamoyl)amide] | 1000 to 20000 nM | 1000 to 20000 nM | 
